The target of the test is T1, 11β-HSD1 (human enzyme) (Homo sapiens, UniProt P28845).
T1 construct: made in house
Put plainly: Enzyme Assay (SPA, 3H-cortisone), human enzyme prep. The class given is biochemical. Particulars: species of enzyme (human or mouse) not stated.

T1 sequence (P28845 whole entry): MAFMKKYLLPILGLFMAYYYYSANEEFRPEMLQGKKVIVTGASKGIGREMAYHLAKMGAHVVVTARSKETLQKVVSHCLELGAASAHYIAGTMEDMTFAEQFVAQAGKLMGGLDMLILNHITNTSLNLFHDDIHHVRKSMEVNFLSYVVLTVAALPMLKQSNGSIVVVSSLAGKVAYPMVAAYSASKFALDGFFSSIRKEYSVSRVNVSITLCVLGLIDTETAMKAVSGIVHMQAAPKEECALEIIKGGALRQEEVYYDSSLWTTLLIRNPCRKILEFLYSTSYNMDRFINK

A word on the IC50: it is the concentration that inhibits the measured activity by half. As to `CC1(CC2CCOCC2)SC(N[C@H]2C[C@@H]3CC[C@H]2C3)=NC1=O` (stereo partly drawn) [2-((1S,2S,4R)-bicyclo[2.2.1]heptan-2-ylamino)-5-methyl-5-((tetrahydro-2H-pyran-4-yl)methyl)thiazol-4(5H)-one], the IC50 is below 20 nM.

The molecule `CC(C)C1(C)SC(Nc2ccccc2Cl)=NC1=O` (stereo not shown) [2-((2-chlorophenyl)amino)-5-methyl-5-(1-methylethyl)-1,3-thiazol-4(5H)-one] returned an IC50 below 20 nM.

For the molecule `Cc1ccccc1NC1=NC(=O)C(C2CCCC2)S1` (stereo not shown) [2-(o-toluidino)-5-cyclopentylthiazol-4(5H)-one], the IC50 is below 20 nM.

The molecule `CC(C)C1(C)SC(Nc2ccccc2C(F)(F)F)=NC1=O` (stereo not shown) [5-methyl-5-(1-methylethyl)-2-((2-(trifluoromethyl)phenyl)amino)-1,3-thiazol-4(5H)-one] yielded an IC50 below 20 nM.

The values above are taken from patent US8541592B2, “Inhibitors of 11-beta-hydroxysteroid dehydrogenase type 1” (Amgen Inc., priority 2005, dated 2013).
